The record followed here is patent US8349883B2, “Hydroxamate-based inhibitors of deacetylases B” (Novartis AG, priority 2008, dated 2013).

For orientation: IC50 means the concentration at which inhibition is half-maximal.

The target of experiment [1] is T1, HDAC-1 (Homo sapiens, UniProt Q13547).
T1 construct: made in house; host or cells: Sf9 or Sf21 insect cells (baculovirus, donor vector pFB-GSTX3)
The experiment in a line: HDAC inhibition assay (purified GST-HDAC protein). It counts as biochemical.

The subject of experiment [2] is HCT116. As to the kind of experiment: HCT116 IC50. Type of experiment: cell-based. Particulars: Homo sapiens, HCT-116.

T1 sequence (Q13547 whole entry, species assumed): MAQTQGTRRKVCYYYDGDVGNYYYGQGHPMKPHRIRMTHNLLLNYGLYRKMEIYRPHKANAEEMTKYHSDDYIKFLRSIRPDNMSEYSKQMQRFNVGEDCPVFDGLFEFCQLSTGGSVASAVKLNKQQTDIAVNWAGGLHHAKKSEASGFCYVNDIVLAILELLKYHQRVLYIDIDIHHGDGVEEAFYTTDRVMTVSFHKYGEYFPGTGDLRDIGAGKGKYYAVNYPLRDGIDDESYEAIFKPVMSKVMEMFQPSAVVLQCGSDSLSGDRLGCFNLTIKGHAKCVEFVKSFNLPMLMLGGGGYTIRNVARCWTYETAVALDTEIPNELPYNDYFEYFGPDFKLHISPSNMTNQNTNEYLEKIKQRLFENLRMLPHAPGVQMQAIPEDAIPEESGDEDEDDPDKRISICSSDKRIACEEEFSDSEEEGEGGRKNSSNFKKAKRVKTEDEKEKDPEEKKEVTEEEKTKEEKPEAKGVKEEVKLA

As for `COc1ccc2[nH]c(C)c(CCN3CCCC3c3ccc(/C=C/C(=O)NO)cc3)c2c1` (stereo not drawn) [Compound 6, (E)-N-Hydroxy-3-(4-{1-[2-(5-methoxy-2-methyl-1H-indol-3-yl)-ethyl]-pyrrolidin-2-yl}-phenyl)-acrylamide], the IC50 in experiment [1] was determined as 2 nM; in experiment [2], 1.2 nM.
`Cc1nn2ccccc2c1CCN1CCC[C@@H]1c1ccc(/C=C/C(=O)NO)cc1` [Compound 45, (E)-N-Hydroxy-3-(4-{(R)-1-[2-(2-methyl-pyrazolo[1,5-a]pyridin-3-yl)-ethyl]-pyrrolidin-2-yl}-phenyl)-acrylamide]: the IC50 was determined as 2.4 nM in experiment [1] and 8 nM in experiment [2].
The like results for `Cc1c(CC(C)(C)C)nn(CCN2CCC[C@H]2c2ccc(/C=C/C(=O)NO)cc2)c1O` [Compound 68, (E)-3-[4-((S)-1-{2-[3-(2,2-Dimethyl-propyl)-5-hydroxy-4-methyl-pyrazol-1-yl]-ethyl}-pyrrolidin-2-yl)-phenyl]-N-hydroxy-acrylamide] were, in that order, 40 nM and 160 nM.
The like results for `Cc1[nH]c2ccccc2c1CCN1CCN(C(=O)OC(C)(C)C)CC1c1ccc(/C=C/C(=O)NO)cc1` (stereo not drawn) [Compound 87, 3-[4-((E)-2-Hydroxycarbamoyl-vinyl)-phenyl]-4-[2-(2-methyl-1H-indol-3-yl)-ethyl]-piperazine-1-carboxylic acid tert-butyl ester] were, in that order, 35 nM and 58 nM.
With `Cn1nnc(CCN2CCC[C@H]2c2ccc(/C=C/C(=O)NO)cc2)n1` [Compound 81, (E)-N-Hydroxy-3-(4-{(S)-1-[2-(2-methyl-2H-tetrazol-5-yl)-ethyl]-pyrrolidin-2-yl}-phenyl)-acrylamide], the IC50 in experiment [1] turned out to be 67 nM; in experiment [2], 230 nM.
The like results for `O=C(/C=C/c1ccc(C2CCCN2CC(O)c2ccccc2)cc1)NO` (stereo not drawn) [Compound 28, (E)-N-Hydroxy-3-{4-[1-(2-hydroxy-2-phenyl-ethyl)-pyrrolidin-2-yl]-phenyl}-acrylamide] were, in that order, 25 nM and 85 nM.
For `CC(C)(O)c1nn2ccccc2c1CCN1CCC[C@H]1c1ccc(/C=C/C(=O)NO)cc1` [Compound 48, (E)-N-Hydroxy-3-[4-((S)-1-{2-[2-(1-hydroxy-1-methyl-ethyl)-pyrazolo[1,5-a]pyridin-3-yl]-ethyl}-pyrrolidin-2-yl)-phenyl]-acrylamide], in that order: 2 nM and 3 nM.
For `O=C(/C=C/c1ccc([C@@H]2CCCN2CCc2cn[nH]c2)cc1)NO` [Compound 58, (E)-N-Hydroxy-3-(4-{(S)-1-[2-(1H-pyrazol-4-yl)-ethyl]-pyrrolidin-2-yl}-phenyl)-acrylamide], the IC50 in experiment [1] is 7 nM; in experiment [2] it was 36 nM.
For `O=C(/C=C/c1ccc([C@@H]2CCCN2CCc2ccsc2)cc1)NO` [Compound 35, (E)-N-Hydroxy-3-{4-[(S)-1-(2-thiophen-3-yl-ethyl)-pyrrolidin-2-yl]-phenyl}-acrylamide], in that order: 5 nM and 9 nM.
On to `Cc1n[nH]c(C)c1CCN1CCC[C@H]1c1ccc(/C=C/C(=O)NO)cc1` [Compound 95, (E)-3-(4-{(S)-1-[2-(3,5-Dimethyl-1H-pyrazol-4-yl)-ethyl]-pyrrolidin-2-yl}-phenyl)-N-hydroxy-acrylamide], for which the IC50 is 1.6 nM in experiment [1] and 3 nM in experiment [2].
Regarding `Cc1nn(CCN2CCC[C@H]2c2ccc(/C=C/C(=O)NO)cc2)c(C)c1C` [Compound 67, (E)-N-Hydroxy-3-(4-{1-[2-(3,4,5-trimethyl-pyrazol-1-yl)-ethyl]-pyrrolidin-2-yl}-phenyl)-acrylamide], the IC50 in experiment [1] was 17 nM; in experiment [2] it was 39 nM.
For `Cc1cc(C)n(CCN2CCC[C@H]2c2ccc(/C=C/C(=O)NO)cc2)n1` [Compound 66, (E)-3-(4-{(S)-1-[2-(3,5-Dimethyl-pyrazol-1-yl)-ethyl]-pyrrolidin-2-yl}-phenyl)-N-hydroxy-acrylamide], in that order: 28 nM and 61 nM.
